Test results as given in PMC8991007, “Benzylic Dehydroxylation of Echinocandin Antifungal Drugs Restores Efficacy against Resistance Conferred by Mutated Glucan Synthase” (Journal of the American Chemical Society, 2022).
≈ marks a conversion by molar mass, not a printed value. *1 amine or outer side, *2 acyl side, *3 side chain or, on linkers, in order; H or OH if unused. Where a SMILES comes first, the peptide text is derived from it. Bridges are numbered along the chain shown (N, C = ends). [ ]: non-standard residue; d: D form. The star is where a group is joined. Orn(4R-OH,5R-OCH2CH2NMe3+) = C[N+](C)(C)CCO[C@@H](N[*:3])[C@H](O)C[C@H](N[*:1])C(=O)[*:2]; pTerphenylCO(4''-OnC5H11) = CCCCCOc1ccc(-c2ccc(-c3ccc(C(=O)*)cc3)cc2)cc1; Orn(4R-OH,5R-OH) = O=C([C@H](C[C@@H](O)[C@@H](O)N[*:3])N[*:1])[*:2]; Pro(3S-OH,4S-Me) = C[C@H]1CN[C@H](C(=O)O)[C@H]1O; hTyr(3R-OH) = N[C@H](C(=O)O)[C@H](O)Cc1ccc(O)cc1; Hyp = O=C(O)[C@@H]1C[C@@H](O)CN1

Key:
C. glabrata = assay: Minimum inhibitory concentration broth double-dilution assay; format: cell-based, Candida glabrata; settings: for MIC: 24 h, 30 °C
Description: (§1) The antifungal activities of compounds 1 and 2 were evaluated against a panel of 50 strains of C. albicans and C. glabrata (Table S4), including echinocandin-resistant strains that were constructed by introducing mutations within and near the defined hotspots in the FKS1 and/or FKS2 genes.[27] To evaluate antifungal activity, we determined MIC values. The MIC was defined as the lowest drug concentration that led to turbidity (measured at 600 nm) of less than or equal to 35% of that of the untreated culture. As controls, we tested CSF, MCF, ANF, and RZF.
(§2) All of the tested compounds were dissolved in anhydrous DMSO to a concentration of 5 mg/mL. Candida strains were streaked from a glycerol stock onto YPAD agar plates and grown for 24 h at 30 °C. Colonies were suspended in 1 mL of PBS and diluted to an O.D. of 0.01 at 600 nm with YPAD broth and added into flat-bottom 96-well microplates (Corning) containing a gradient of twofold dilutions per tested compound with concentrations ranging from 64 to 0.0009 μg/mL. Control wells with no drug and blank wells without yeast cells containing YPAD only were also prepared. […] Each concentration was tested in triplicate, and results were confirmed by at least two independent sets of experiments.

C. albicans = assay: as above; format: cell-based, Candida albicans; settings: for MIC: 24 h, 30 °C
Description: as §1, §2

UACC-62 = assay: cells; format: cell-based; settings: Homo sapiens; UACC-62 expressing GFP, 24 h, mean ± SD; read-out: IC50 (cell viability)
Description: (§3) In this analysis, we used HCT-116, a human colorectal carcinoma cell line; UACC-62, a human melanoma cell line; Hs 578T, a human mammary gland carcinoma cell line, and SF-295, a human glioblastoma cell line. […] The highest concentration of the echinocandins used for the cell viability tests was determined based on the reported maximal plasma concentrations (Cmax) of ANF and RZF measured in humans. A Cmax of approximately 7 μM was measured during a pharmacokinetic study of ANF in patients with candidemia or invasive candidiasis who were treated with a 200 mg loading dose on day 1, followed by a daily 100 mg maintenance dose.[64]
(§4) Human cell lines HCT-116, UACC-62, Hs 578T, and SF-295 were obtained from the Life Sciences Core Facilities of the Nancy & Stephen Grand Israel National Center for Personalized Medicine. Cell lines were grown in an RPMI medium (Gibco, cat. no. 21875-034) supplemented with 10% fetal calf serum (Biological Industries, cat. no. 04-007-1A), Pen/Strep (Biological Industries, cat. no. 03-031-1B), and glutamine (Biological Industries, cat. no. 03-020-1B). GFP was introduced into cells using TALENS according to a previously reported protocol.[73] GFP cells were selected by FACS and propagated.
(§5) Assay-ready plates were designed using in-house software (CHEMPION, INCPM software development team) and prepared in 384-well Greiner plates (cat. no. 781091) using an Echo 555 Acoustic Liquid Handler (Labcyte). The final DMSO concentration in all samples was 0.4%. Prior to the experiment, cells were trypsinized and counted using a Countess cytometer. Cells were then diluted to 40,000 cells/mL in a fresh medium. Cells (50 μL/well; 2000 cells/well) were then dispensed with a Thermo Combi dispenser into plates containing predispensed compounds. After 30 min at room temperature to ensure uniform adherence of cells, the plates were moved to an automated incubator (Liconic STX44) and incubated at 37 °C. An automated confocal microscope with a 4× S Fluor lens (Molecular Devices ImageExpress) was used to acquire images of GFP-expressing cells after 24 h of incubation. Images were then analyzed using MetaExpress with a custom protocol (Custom Module Editor), and data were annotated and normalized using Genedata Screener software. Final normalized data were then loaded into CDD Vault software for comparative data visualization.

HCT-116 = assay: cells; format: cell-based; settings: Homo sapiens; HCT-116 expressing GFP, 24 h, mean ± SD; read-out: IC50 (cell viability)
Description: as §3, §4, §5

SF-295 = assay: cells; format: cell-based; settings: Homo sapiens; SF-295 expressing GFP, 24 h, mean ± SD; read-out: IC50 (cell viability)
Description: as §3, §4, §5

Hs 578T = assay: Phenotypic viability assay of GFP reporter cell line; format: cell-based; settings: Homo sapiens; Hs 578T expressing GFP, 24 h, mean ± SD
Description: as §3, §4, §5

[1] = #38 C. glabrata CBS138 (ATCC 2001)
[2] = #2 C. albicans DPL1015 (DP-A15)
[3] = #3 C. albicans DPL1016 (DP-A15-10)

## CCCCCOc1ccc(-c2ccc(-c3ccc(C(=O)N[C@H]4C[C@@H](O)[C@@H](O)NC(=O)[C@@H]5[C@@H](O)[C@@H](C)CN5C(=O)[C@H]([C@@H](C)O)NC(=O)[C@H]([C@H](O)Cc5ccc(O)cc5)NC(=O)[C@@H]5C[C@@H](O)CN5C(=O)[C@H]([C@@H](C)O)NC4=O)cc3)cc2)cc1 [Compound 1, dehydroxy-ANF] ({pTerphenylCO(4''-OnC5H11)}-[Orn(4R-OH,5R-OH)]T[Hyp][hTyr(3R-OH)]T[Pro(3S-OH,4S-Me)]; lactam 1-C)
C. glabrata; #9 C. glabrata EF1620
  MIC: 0.004 µg/mL (≈ 0.00356 µM)
C. glabrata; #10 C. glabrata TGL00277
  MIC: 8 µg/mL (≈ 7.12 µM)
C. glabrata; #11 C. glabrata TGL00275
  MIC: 8 µg/mL (≈ 7.12 µM)
C. glabrata; #12 C. glabrata CST78
  MIC: 0.002 µg/mL (≈ 0.00178 µM)
C. glabrata; #13 C. glabrata TGL00265
  MIC: 1 µg/mL (≈ 0.889 µM)
C. glabrata; #14 C. glabrata TGL00264
  MIC: > 64 µg/mL
C. glabrata; #15 C. glabrata TGL00263
  MIC: 1 µg/mL (≈ 0.889 µM)
C. glabrata; #16 C. glabrata TGL00065
  MIC: 16 µg/mL (≈ 14.2 µM)
C. glabrata; #17 C. glabrata CST34
  MIC: 0.002 µg/mL (≈ 0.00178 µM)
C. glabrata; #18 C. glabrata TGL00258
  MIC: 32 µg/mL (≈ 28.5 µM)
C. glabrata; #19 C. glabrata TGL00256
  MIC: 0.25 µg/mL (≈ 0.222 µM)
C. glabrata; #20 C. glabrata TGL00107
  MIC: > 64 µg/mL
C. glabrata; #21 C. glabrata TGL00056
  MIC: > 64 µg/mL
C. glabrata; #22 C. glabrata M12
  MIC: 0.002 µg/mL (≈ 0.00178 µM)
C. glabrata; #23 C. glabrata TGL00270
  MIC: 1 µg/mL (≈ 0.889 µM)
C. glabrata; #24 C. glabrata TGL00269
  MIC: 0.063 µg/mL (≈ 0.056 µM)
C. glabrata; #25 C. glabrata TGL00268
  MIC: > 64 µg/mL
C. glabrata; #26 C. glabrata TGL00268
  MIC: > 64 µg/mL
C. glabrata; #27 C. glabrata EB0911
  MIC: 0.002 µg/mL (≈ 0.00178 µM)
C. glabrata; #28 C. glabrata TGL00261
  MIC: 0.25 µg/mL (≈ 0.222 µM)
C. glabrata; #29 C. glabrata TGL00109
  MIC: 64 µg/mL (≈ 56.9 µM)
C. glabrata; #30 C. glabrata TGL00259
  MIC: 4 µg/mL (≈ 3.56 µM)
C. glabrata; #31 C. glabrata EF1237
  MIC: 0.001 µg/mL (≈ 0.000889 µM)
C. glabrata; #36 C. glabrata F15
  MIC: 0.002 µg/mL (≈ 0.00178 µM)
C. glabrata; [1]
  MIC: 0.004 µg/mL (≈ 0.00356 µM)
C. glabrata; #41 C. glabrata P35_2
  MIC: 0.002 µg/mL (≈ 0.00178 µM)
C. glabrata; #43 C. glabrata SLL2glab
  MIC: 0.002 µg/mL (≈ 0.00178 µM)
C. glabrata; #46 C. glabrata BG2
  MIC: 0.001 µg/mL (≈ 0.000889 µM)
C. glabrata; C. glabrata strain 28, Fks2 phenylalanine 659 deleted
  increase in potency on dehydroxylation of ANF (ratio MIC (ANF)/MIC (1)): 8 fold
C. albicans; #1 C. albicans Sc5314
  MIC: 0.008 µg/mL (≈ 0.00712 µM)
C. albicans; [2]
  MIC: 0.031 µg/mL (≈ 0.0276 µM)
C. albicans; [3]
  MIC: 1 µg/mL (≈ 0.889 µM)
C. albicans; #4 C. albicans T-2068 (DP-C42)
  MIC: 0.25 µg/mL (≈ 0.222 µM)
C. albicans; #5 C. albicans T-2069 (DP-85)
  MIC: 0.5 µg/mL (≈ 0.445 µM)
C. albicans; #6 C. albicans (DP-89)
  MIC: 1 µg/mL (≈ 0.889 µM)
C. albicans; #7 C. albicans T-2076 (DP-194)
  MIC: 0.5 µg/mL (≈ 0.445 µM)
C. albicans; #8 C. albicans T-2077 (DP-205)
  MIC: 0.125 µg/mL (≈ 0.111 µM)
C. albicans; C. albicans strain 4, Fks1 phenylalanine 641 to serine
  MIC difference between ANF and dehydroxy derivative 1 (ratio MIC (ANF)/MIC (1)): 8 fold
UACC-62
  IC50: > 40 µM
HCT-116
  IC50: > 40 µM
SF-295
  IC50: 17.5 ± 1.57 µM
Hs 578T
  IC50: > 40 µM

## CCCCCOc1ccc(-c2ccc(-c3ccc(C(=O)N[C@H]4C[C@@H](O)[C@@H](OCC[N+](C)(C)C)NC(=O)[C@@H]5[C@@H](O)[C@@H](C)CN5C(=O)[C@H]([C@@H](C)O)NC(=O)[C@H]([C@H](O)Cc5ccc(O)cc5)NC(=O)[C@@H]5C[C@@H](O)CN5C(=O)[C@H]([C@@H](C)O)NC4=O)cc3)cc2)cc1 [Compound 2, dehydroxy-RZF] ({pTerphenylCO(4''-OnC5H11)}-[Orn(4R-OH,5R-OCH2CH2NMe3+)]T[Hyp][hTyr(3R-OH)]T[Pro(3S-OH,4S-Me)]; lactam 1-C)
C. glabrata; #9 C. glabrata EF1620
  MIC: 0.015 µg/mL
C. glabrata; #10 C. glabrata TGL00277
  MIC: 16 µg/mL
C. glabrata; #11 C. glabrata TGL00275
  MIC: 8 µg/mL
C. glabrata; #12 C. glabrata CST78
  MIC: 0.004 µg/mL
C. glabrata; #13 C. glabrata TGL00265
  MIC: 2 µg/mL
C. glabrata; #14 C. glabrata TGL00264
  MIC: 32 µg/mL
C. glabrata; #15 C. glabrata TGL00263
  MIC: 2 µg/mL
C. glabrata; #16 C. glabrata TGL00065
  MIC: 8 µg/mL
C. glabrata; #17 C. glabrata CST34
  MIC: 0.004 µg/mL
C. glabrata; #18 C. glabrata TGL00258
  MIC: 8 µg/mL
C. glabrata; #19 C. glabrata TGL00256
  MIC: 0.25 µg/mL
C. glabrata; #20 C. glabrata TGL00107
  MIC: 16 µg/mL
C. glabrata; #21 C. glabrata TGL00056
  MIC: > 64 µg/mL
C. glabrata; #22 C. glabrata M12
  MIC: 0.002 µg/mL
C. glabrata; #23 C. glabrata TGL00270
  MIC: 4 µg/mL
C. glabrata; #24 C. glabrata TGL00269
  MIC: 0.063 µg/mL
C. glabrata; #25 C. glabrata TGL00268
  MIC: > 64 µg/mL
C. glabrata; #26 C. glabrata TGL00268
  MIC: > 64 µg/mL
C. glabrata; #27 C. glabrata EB0911
  MIC: 0.004 µg/mL
C. glabrata; #28 C. glabrata TGL00261
  MIC: 1 µg/mL
C. glabrata; #29 C. glabrata TGL00109
  MIC: 64 µg/mL
C. glabrata; #30 C. glabrata TGL00259
  MIC: 8 µg/mL
C. glabrata; #31 C. glabrata EF1237
  MIC: 0.002 µg/mL
C. glabrata; #36 C. glabrata F15
  MIC: 0.004 µg/mL
C. glabrata; [1]
  MIC: 0.008 µg/mL
C. glabrata; #41 C. glabrata P35_2
  MIC: 0.004 µg/mL
C. glabrata; #43 C. glabrata SLL2glab
  MIC: 0.008 µg/mL
C. glabrata; #46 C. glabrata BG2
  MIC: 0.008 µg/mL
C. albicans; #1 C. albicans Sc5314
  MIC: 0.015 µg/mL
C. albicans; [2]
  MIC: 0.062 µg/mL
C. albicans; [3]
  MIC: 2 µg/mL
C. albicans; #4 C. albicans T-2068 (DP-C42)
  MIC: 0.5 µg/mL
C. albicans; #5 C. albicans T-2069 (DP-85)
  MIC: 0.5 µg/mL
C. albicans; #6 C. albicans (DP-89)
  MIC: 1 µg/mL
C. albicans; #7 C. albicans T-2076 (DP-194)
  MIC: 1 µg/mL
C. albicans; #8 C. albicans T-2077 (DP-205)
  MIC: 0.25 µg/mL
C. albicans; C. albicans strains 5 and 6, Fks1 serine 645 to phenylalanine or tyrosine
  MIC differences between RZF and dehydroxy derivative 2 (ratio MIC (RZF)/MIC (2)): at least 8 fold
UACC-62
  IC50: 29.2 ± 5.2 µM
HCT-116
  IC50: 34.1 ± 11.5 µM
SF-295
  IC50: 32.4 ± 6.7 µM
Hs 578T
  IC50: > 40 µM
